Measurements taken from US20230390192A1, “GASTRO RETENTIVE DOSAGE FORMS COMPRISING DEUTETRABENAZINE” (AUSPEX PHARMACEUTICALS, INC., priority 2020, published 2023).

Legend:
[1] = Drug solubility at different pH
[2] = Deutetrabenazine/deuHTBZ Cmax ratio in humans; assay type: in vivo
Human [14C]-AME study = conditions: humans, dosed as powder in capsule (PIC)
[3] = Rat perfusion model, intestinal permeability/absorption
[4] = in vivo; cited from earlier work
[5] = Single-dose partial crossover comparative bioavailability study in dogs
Protocol: The trial was conducted as an open-label, randomized, single-dose, partial crossover comparative bioavailability study. The study was designed to determine the AUC0-t, AUC0-24, Cmax and Tmax of deutetrabenazine and total deuterated α- and β-dihydrotetrabenazine (deuHTBZ) metabolites. The sample group consisted of 4 male beagle dogs. Each dog was administered two treatments. […] A washout period of 14 days was kept before crossing over to the next treatment. Each dog was administered a single oral dose with 10 ml water. Prior to each dose administration, the dogs were pretreated with pentagastrin (to stimulate gastric acid secretion.
Blood samples were collected before dosing and at predetermined time points through 24 hours post-dosing. The samples were analyzed for deutetrabenazine and total deuHTBZ in plasma using an LC-MS/MS method.

[6] = Particle size distribution by laser diffractometry (Mastersizer 3000); assay type: physicochemical; conditions: drug substance, dry measurement
From the text: As used herein, the term “particle size distribution” refers to the statistical distribution of the volume share related of all particle sizes and is represented by D90, D50 or D10 values. The D90 value of the integral volume distribution is defined in the context of this invention as the particle diameter, at which 90 percent by volume of the particles have a smaller diameter than the diameter, which corresponds to the D90 value. For example, a D90 of 15 μm, means that 90% (by volume) of the particles have a diameter less than or equal to 15 μm. A D50 of 10 μm, means that 50% (by volume) of the particles have a diameter less than or equal to 10 μm. A D10 of 3 μm, means that 10% (by volume) of the particles have a diameter less than or equal to 3 μm. Particle size distribution is determined by means of laser diffractometry. More specifically, the particle size distribution is determined using a Mastersizer 3000 from Malvern Instruments.
The deutetrabenazine particle size distributions following manufacture (untreated), milling (quadro co-mill) and micronization (air jet mill) are shown in Table 1.
For dry measurement of the milled and unmilled deutetrabenazine the following settings are preferably used: […]

D10 [6] [μm]	D50 [6] [μm]	D90 [6] [μm]	SMILES	solubility ([1]; acidic environment (pH<4))	solubility ([1]; pH ≥4) [µg/mL]	deutetrabenazine/deuHTBZ Cmax ratio [2] [%]	radioactive dose recovered in urine (Human [14C]-AME study)	permeability through the small intestinal (SI) segments ([3]; rat perfusion model)	levels of absorption in the lower GI (rank order of segments) ([3]; rats)	ileum absorption ([3]; rats, lower GI)	half-life of active metabolites relative to tetrabenazine [4]	deutetrabenazine/deuHTBZ Cmax ratio [5]
			[2H]C([2H])([2H])Oc1cc2c(cc1OC([2H])([2H])[2H])[C@H]1CC(=O)[C@H](CC(C)C)CN1CC2 [Deutetrabenazine, (RR,SS)-1,3,4,6,7,11b-hexahydro-9,10-di(methoxy-D3)-3-(2-methylpropyl)-2H-benzo[a]quinolizin-2-one]	relatively good solubility	< 2300	< 1	approximately 80%	permeable	Jejunum<Mid-small intestine<Colon<Ileum	about 0.0006 cm/sec	increased	about 10%
6.11	33.55	131.55	[2H]C([2H])([2H])Oc1cc2c(cc1OC([2H])([2H])[2H])C1CC(=O)C(CC(C)C)CN1CC2 (stereo not drawn) [co-milled, deutetrabenazine]									
1.08	3.31	7.05	[2H]C([2H])([2H])Oc1cc2c(cc1OC([2H])([2H])[2H])C1CC(=O)C(CC(C)C)CN1CC2 (stereo not drawn) [micro-milled, deutetrabenazine]									
9.08	59.66	213.07	[2H]C([2H])([2H])Oc1cc2c(cc1OC([2H])([2H])[2H])C1CC(=O)C(CC(C)C)CN1CC2 (stereo not drawn) [unmilled, deutetrabenazine]									
